Reference: patent US20020058699A1, “Methods for treating seizure disorders by inhibiting MAPK pathway activation” (priority 2000, published 2002)
Entries after “also recorded” stand apart in the source; their conditions may differ. One block for each compound: values may come before it.

How the values were obtained:
[1] = test system: kainate-induced limbic motor seizures; assay: Kainate-induced seizures scored by Racine Classification Scale; type: in vivo, rat
Protocol: Male Sprague-Dawley rats (125-200 gm) were administered kainate at a dose of 15 mg/kg IP while the control animals (CTL) received vehicle IP (saline). Seizures were scored independently by two investigators in accordance with the Racine Classification Scale (0=no seizures, 1=mouth/face movements; 2=head nodding; 3=forelimb clonus; 4=rearing; and 5=rearing and falling). [Ben-Ari et al., Devl. Brain. Res. 14:284-288 (1985)]. Seizure score is shown plotted against time in the kainate-treated and control (vehicle-injected) animals.
(§1) Adult rats were injected IP with SL327 100 mg/kg or vehicle alone (PEG400/ETOH) were administered 30 minutes later with kainate or vehicle (saline). Animals were sacrificed at following 1 hour of kainate-induced seizures or three hours after kainate injection. Hippocampal regions CA1, CA3, and dentate were removed and processed for Western blotting, as described in Example 1.
Animals were treated as described in Example 2 except that SL327 was administered at 400 mg/kg.

ERK MAPK (p42 and p44) = assay: Hippocampal ERK activation by Western blotting (phospho-ERK and total ERK); type: in vivo, rat; conditions: for ERK activation (phospho-ERK): kainate+vehicle (PEG400/ETOH); for basal ERK phosphorylation: CTL+SL327 400 mg/kg; for kainate-induced ERK phosphorylation: KA+SL327 400 mg/kg; for basal ERK activation (phospho-ERK): control+SL327 100 mg/kg; for kainate-induced ERK activation (phospho-ERK): kainate+SL327 100 mg/kg
Protocol: Hippocampal ERK activation was quantified by Western blotting using the method described by Atkins el al.[Atkins et al., Nat. Neurosci. 1:602-609 (1998)] with minor modifications. In brief, animals were sacrificed at 30 minutes and after 1 hr of class 5 seizures (150 min post injection) and the hippocampus was dissected. CA1, CA3 and dentate subregions were dissected in ice-cold saline and homogenates prepared by extracting with denaturing detergent. Protein concentrations were deteremined by Bradford Assay. Homogenates were subjected to Western blotting (immunoblots) prepared by routine methods (for example, see Harlow and Lane, in ANTIBODIES: A LABORATORY MANUAL, Cold Spring Harbor Laboratory Press (1988)). Blotted protein was detected using antibodies to total ERK (1:10,000) and dually phosphorylated, activated ERK MAPK (p42 and p44)(1:1000)(Cell Signaling). Enzyme activity associated with a secondary antibody was detected by incubation with Enhanced Chemiluminescent Reagent (BioRad Laboratories, Hercules Calif.) as substrate. Immunoreactivity of the total ERK and dually phosphorylated activated ERK MAPK in the blot was quantified using densitometry (Scion) for representative blots of p42 and analyzed by Student's t-test.
as §1
ERK phosphorylation in brain tissue was evaluated in kainate challenged animals pretreated with 400 mg/kg SL327. […] CA1, CA3, and dentate were dissected and processed for Western blotting as described in Example 1. […] Tukey's Multiple Comparison Test: ***p<0.001.

Kv4.2 [2] = assay: Phospho-Kv4.2 Western blotting of hippocampal membrane fractions from kainate and control animals; type: in vivo, rat
Protocol: Western blotting using the phospho-Kv4.2 antibody to the ERK sites was performed on membrane fractions from kainate and control animals pretreated with SL327 as described in Example 1. See also Adams et al., J. Neurochem. 75:2277-2287 (2000), and Anderson et al., J. Biol. Chem. 275:5337-5346 (2000). Animals were sacrificed 30 minutes after kainate (before overt seizures) and 1 hour after continuous motor seizures.

CREB = assay: Phospho-CREB Western blots of hippocampus; type: in vivo, rat
Protocol: Western blots prepared using CA1, CA3 and dentate regions of the hippocampus from rats following kainate-induced status epilepticus (KA, n=3) or vehicle alone (CTL, n=3) were performed using phospho-CREB antibodies. […] There is a small but significant decrease in CREB phosphorylation in CA3 (CA3 80.4±9.0%; *p<0.05, ***p<0.001).
Hippocampal region CA1 was removed 2 hours after rats were treated IP with the MEK inhibitor, SL327 (100 mg/kg) or vehicle alone. Western blots were developed using the phosho-CREB antibody.

phospho-ERK = assay: Phospho-ERK immunohistochemistry of hippocampus; type: in vivo, rat; conditions: 150 min after kainate; stratum oriens of CA1, stratum radiatum of CA1 and CA3, dentate hilus, mossy fiber inputs to CA3
Protocol: Immunohistochemical analysis of stained neural tissue was performed as described by Varga et al., Learn Mem 7;321-322 (2000), with the following modifications. In this case, kainate and control animals were sacrificed at 150 minutes following injection, while in stage 5 seizures for about 1 hour. After tissue fixation, 20-micron sections were thaw-mounted and incubated in 0.3% H2O2 in methanol for 30 minutes at RT, washed in PBST (PBS containing 0.2% Triton X-100), and blocked in PBST containing 5% normal goat serum (NGS). Sections were then incubated with the phospho-ERK antibody (1:100) overnight, washed with PBST, and incubated with a 1:200 dilution of goat anti-rabbit biotinylated secondary antibody for 30 minutes at RT. After washing and incubation with a 1:50 dilution of ABC reagent (Pierce) for 30 minutes at RT, sections were again washed in PBST and then stained using metal enhanced DAB. Sections were then rinsed, cleared, and coverslipped using a xylene based medium.

phospho-Kv4.2 = assay: Phospho-Kv4.2 immunohistochemistry of hippocampus; type: in vivo, rat; conditions: after kainate-induced seizures; stratum oriens and radiatum of CA1 and CA3, dentate hilus
Protocol: [insert*: see symbol after “antibody”] Immunohistochemistry using phospho-Kv4.2 antibody (phospho-Kv4.2) to the ERK sites was performed as described in Example 1 for the same animal groups. […] These areas include stratum oriens and stratum radiatum of areas CA1 and CA3 and the dentate hilus.

[3] = test system: transient K+ currents composed of Kv4.2 subunits; assay: Transient K+ currents recorded in distal dendrites of hippocampal area CA1 slices; type: cell-based
Protocol: MEK inhibitor PD098059 ([…]) or vehicle was applied to the hippocampal CA1 slices at least 20 minutes before recording conductance.
The functional consequence of MAPK inhibition on transient K^+currents composed of Kv4.2 subunits as recorded in distal dendrites of hippocampal area CA1 was evaluated. The MEK inhibitor PD098059 ([…]) or vehicle was applied to the hippocampal CA1 slices at least 20 min prior to recording conductance.

[4] = Behavioral observation of animals treated with SL327; type: in vivo, rat
Kv4.2 [5] = conditions: U0126 20 μM, rat hippocampal slices, CA1
Protocol: Rat hippocampal slices were bathed in vehicle with MEK inhibitor U0126 (20 μM) or vehicle alone (CTL).

[6] = vehicle-treated kainate group (no SL327)
[7] = SL327 100 mg/kg IP 30 min before kainate

Compound: C=C(C)[C@H]1CN[C@H](C(=O)O)[C@H]1CC(=O)O [kainate]
- seizure class (Racine Classification Scale) ([1]; kainate 15 mg/kg IP, male Sprague-Dawley rats, within 90 min, persisted until 150 min): all of the animals studied developed class 5 seizures
- animals progressed to Class 3 seizures [1, 6]: 1/9
- animals progressed to Class 5 seizures [1, 6]: 6/9
- animals that developed limbic motor seizures [1, 6]: 78%
- animals with no evidence of motor seizures [1, 6]: 2/9
- phospho-ERK2 immunoreactivity (ERK MAPK (p42 and p44); CA1, 30 min after kainate 15 mg/kg IP, prior to behavioral seizures): 218.9 (±40.66) % CTL
- phospho-ERK2 immunoreactivity (ERK MAPK (p42 and p44); CA1, 150 min after kainate, class 5 seizures): 165.5±16.5 % of control
- phospho-ERK2 immunoreactivity (ERK MAPK (p42 and p44); CA3, 30 min after kainate 15 mg/kg IP): 206.80 (±31.61) % CTL
- phospho-ERK2 immunoreactivity (ERK MAPK (p42 and p44); CA3, 150 min after kainate, class 5 seizures): 153.1±10.3 % of control
- phospho-ERK2 immunoreactivity (ERK MAPK (p42 and p44); dentate, 30 min after kainate 15 mg/kg IP): 305.50 (±58.26) % CTL
- phospho-ERK2 immunoreactivity (ERK MAPK (p42 and p44); dentate, 150 min after kainate, class 5 seizures): 224.8±34.1 % of control
- total MAPK immunoreactivity (ERK MAPK (p42 and p44); kainate versus control, total MAPK antibody): No difference
- ERK activation (phospho-ERK) (ERK MAPK (p42 and p44); CA1): 215.40 (±24.19) % control
- ERK activation (phospho-ERK) (ERK MAPK (p42 and p44); CA3): 196.60 (±6.69) % control
- ERK activation (phospho-ERK) (ERK MAPK (p42 and p44); dentate): 219.60 (±8.82) % control
- ERK phosphorylation of Kv4.2 (Kv4.2 [2]; CA1, 30 min after kainate injection): 48.80±6.95 % control
- ERK phosphorylation of Kv4.2 (Kv4.2 [2]; CA3, 30 min after kainate injection): 128.70±29.12 % control
- phospho-Kv4.2 (Kv4.2 [2]; KA+Vehicle, CA1, after 1 hr limbic motor seizures): 535.5±84.1 % of CTL+Vehicle
- phospho-Kv4.2 (Kv4.2 [2]; KA+Vehicle, CA3, after 1 hr limbic motor seizures): 442.0±57.0 % of CTL+Vehicle
- phospho-Kv4.2 (Kv4.2 [2]; KA+Vehicle, dentate, after 1 hr limbic motor seizures): 1177.0±361.1 % of CTL+Vehicle
- ERK phosphorylation of Kv4.2 (Kv4.2 [2]; dentate, 30 min after kainate injection): 109.10±11.09 % control
- CREB phosphorylation (CREB; CA1, kainate-induced status epilepticus): 162.9±29.4 % of control
- CREB phosphorylation (CREB; CA3, kainate-induced status epilepticus): 80.4±9.0%
- CREB phosphorylation (CREB; dentate, kainate-induced status epilepticus): 138.0±4.4 % of control
- phospho-ERK staining (phospho-ERK): increased greatly
- phospho-Kv4.2 staining (phospho-Kv4.2): increase in phospho-Kv4.2

- locomotor activity ([4]; SL327 400 mg/kg, some animals in kainate and control groups): increase in locomotor activity
Compound: N#CC(=C(N)Sc1ccc(N)cc1)c1ccccc1C(F)(F)F [SL327, Z- and E-α-[amino[(4-aminophenyl)thio]methylene]-2-(trifluoromethyl)benzeneacetonitrile]
- animals with class 5 seizures [1, 7]: 100%
- block of kainate-induced seizures [1, 7]: did not block kainate-induced seizures
- block of kainate-induced limbic motor seizures ([1]; SL327 400 mg/kg IP 30 min before kainate 15 mg/kg): blocks limbic motor status epilepticus; also recorded: effectively blocked kainate-induced limbic motor seizures
- basal ERK phosphorylation (ERK MAPK (p42 and p44); CA1): 8.4±7.2 % of CTL+Vehicle
- basal ERK phosphorylation (ERK MAPK (p42 and p44); CA3): 2.9±0.5 % of CTL+Vehicle
- basal ERK phosphorylation (ERK MAPK (p42 and p44); dentate): 3.1±0.8 % of CTL+Vehicle
- kainate-induced ERK phosphorylation (ERK MAPK (p42 and p44); CA1): 31.5±10.5 % of CTL+Vehicle
- kainate-induced ERK phosphorylation (ERK MAPK (p42 and p44); CA3): 26.2±10.8 % of CTL+Vehicle
- kainate-induced ERK phosphorylation (ERK MAPK (p42 and p44); dentate): 24.7±9.9 % of CTL+Vehicle
- total ERK1/ERK2 MAPK protein (ERK MAPK (p42 and p44); SL327 400 mg/kg pretreatment, total ERK antibody): no changes in total protein
- basal ERK activation (phospho-ERK) (ERK MAPK (p42 and p44); CA1): 46.05 (±15.89) % control
- basal ERK activation (phospho-ERK) (ERK MAPK (p42 and p44); CA3): 37.51 (±9.59) % control
- basal ERK activation (phospho-ERK) (ERK MAPK (p42 and p44); dentate): 32.16 (±11.46) % control
- kainate-induced ERK activation (phospho-ERK) (ERK MAPK (p42 and p44); CA1): 220.70 (±35.80) % control
- kainate-induced ERK activation (phospho-ERK) (ERK MAPK (p42 and p44); CA3): 143.60 (±22.26) % control
- kainate-induced ERK activation (phospho-ERK) (ERK MAPK (p42 and p44); dentate): 195.6 (±18.58) % control
- unspecified quantity, % of control ([3]; n=2, Control 85.55%): 61.83 % of control
- phospho-Kv4.2 (Kv4.2 [2]; KA+SL327 400 mg/kg, CA1): 152.8±41.4 % of CTL+SL327
- phospho-Kv4.2 (Kv4.2 [2]; KA+SL327 400 mg/kg, CA3): 170.8±16.6 % of CTL+SL327
- phospho-Kv4.2 (Kv4.2 [2]; KA+SL327 400 mg/kg, dentate): 66.6±10.36 % of CTL+SL327
- activated CREB (phospho-CREB) (CREB; CA1, 2 hours after SL327 100 mg/kg IP): reduces the amount of activated CREB
- sedation ([4]; SL327 400 mg/kg, all groups): modest degree of apparent sedation
- lethargy or other behavioral changes ([4]; control animals, SL327 100 mg/kg): No obvious lethargy or other behavioral changes

Compound: N#CC(=C(/N)Sc1ccccc1N)/C(C#N)=C(\N)Sc1ccccc1N [U0126]
- detection by MAPK-Kv4.2 phospho-selective antibody (basal Kv4.2 phosphorylation) (Kv4.2 [5]): 61.14%±8.74 % of control

Compound: COc1cccc(-c2cc(=O)c3ccccc3o2)c1N [PD098059, 2-(2′-amino-3′-methoxyphenyl)-oxanaphthalen-4-one]
- effect on conductance / voltage-dependence of K+ currents in dendrites ([3]; MEK inhibitor applied to hippocampal CA1 slices at least 20 min before recording): hyperpolarizing shift; also recorded: Conductance with inhibitor was increased compared to controls at almost all voltages applied
- V½ of steady-state activation, after compound ([3]; as printed: after compound, PD098059 50 μM applied at least 20 min before recording, n=10): −2 mV
- V½ of steady-state activation, before compound ([3]; as printed: before compound, n=7): −9 mV
